{"source": "paper PMC12767106", "about": "“In Situ Assembly of Transformable Monopeptide on Activated Neutrophils Attenuates NETs‐Induced Hepatocellular Carcinoma Metastasis by Disrupting NE Nuclear Translocation” (Advanced Science, 2025)", "key": {"[1]": {"assay": "Zeta potential before and after incubation with NE", "type": "physicochemical", "conditions": "20 µM, mean ± s.d., n = 3", "procedure": "Submitted to Advanced Science temperature. Following the incubation, 10 µL of the solution was added to a copper mesh at 0 and 24 h. Filter paper was used to remove any extra droplets after an overnight stay. The samples were then stained for five minutes with uranyl acetate and then rinsed for one minute with water (10 µL). Finally, dried samples were observed by TEM (Talos 120C, Thermo Fisher Scientific, USA). DLS (Zetasizer Nano ZS, UK) was used to assess the solution for hydrodynamic size and zeta potential at 0 and 24 h following the incubation. Then, the nanofiber structure at 0 h and 24 h after incubation of FTP-NPs was examined with Circular Dichroism (CD) Spectra (Chirascan, UM, Britain). In addition, the variation of fluorescence emission spectra of PpIX by […]\ntransformation of FTP-NPs.\nPyrene molecules were employed as an indicator to determine the critical aggregation concentration (CAC) of nanoparticles by comparing the fluorescence of their third and first emissive peaks. […] The fluorescence spectra of pyrene (excitation, 335 nm) in different NPs dilutions were recorded. The fluorescence intensity ratio (I3/I1) of the third and first emissive peaks was measured for CAC calculation. […]\nFigure S3. […] (a, b) Changes in fluorescence and UV–vis absorption of FTP-NPs following the gradual addition of water (from 0 to 99.5%) to a solution of NPs in Dimethyl Sulfoxide (DMSO). […]"}, "activated neutrophils": {"test_system": "activated neutrophils", "assay": "CCK-8 cytotoxicity", "type": "cell-based, mouse", "conditions": "CCK-8, 24 h, different dosages", "procedure": "The supernatant was discarded, and the red blood cells were lysed with RBC lysate. The neutrophils were then washed with PBS again, and the supernatant was discarded. The cells were resuspended in culture medium and used for further experiments. […]\nBriefly, FTP-NPs were prepared by self-assembly of peptidic nanomaterials and adjusted to various concentrations (0, 50, 100, 200, 400, 800, 1000 μg/mL). […]\n10 minutes to remove unbound particles, and the supernatant was collected. […]\nIn vitro cytotoxicity assay\nThe CCK-8 assay was used to assess the cell viability of Hepa1-6/luc, resting neutrophils, and activated neutrophils. Following the seeding of 1*10^4 cells per well on a 96-well plate, the cells were subjected to different dosages of FTP-NPs and NFTP-NPs (medium: DMSO = 99:1 v/v). After 24 hours, the cells were incubated for two hours with 10 µL of CCK-8 solution. Finally, a microplate reader (Tecan Infinite M200, Switzerland) was used to measure cell viability based on the absorbance values.\nTargeting the capability of NEBP\nTo evaluate the targeting capability of NE-binding peptide (NEBP), the harvested resting neutrophils and […]"}, "[2]": {"conditions": "mouse, in vivo"}}, "data": [{"substance": "PpIX-GFFVLK-EAIPMSIPPEVK [FTP-NPs]", "values": [{"measurement": "zeta potential, initial NPs", "setting": "[1]; before fibrillar transformation", "result": "21.7±0.6", "unit": "mV"}, {"measurement": "zeta potential after fibrillar transformation", "setting": "[1]; with NE for 24 h", "result": "9.2±0.2", "unit": "mV"}, {"measurement": "survival rate", "setting": "activated neutrophils", "result": "over 95%"}, {"measurement": "toxicity in mice (liver function, platelets, creatinine, blood cell count)", "setting": "[2]", "result": "nontoxic"}]}]}
